# Data published in ChEMBL document CHEMBL1201862, “PubChem BioAssay data set” (2004).
#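 Results reflect a 48-hour exposure of cells in 96-well plates to compound at five concentrations. GI50 = concentration required for 50% inhibition of growth.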 Active and inactive are the calls of the source. No stated cut-off is given here; in the data, active = GI50 up to about 1.1 µM and inactive = higher.
# Key:
# Assay in all cases: NCI-60 cell line screen, 48 h
# Malme-3M = system: Malme-3M
# 786-0 = system: 786-0
# HOP-62 = system: HOP-62
# SF-539 = system: SF-539
# HOP-92 = system: HOP-92
# NCI-H522 = system: NCI-H522
# SR = system: SR
# MOLT-4 = system: MOLT-4
# M14 = system: M14
# RXF 393 = system: RXF 393
# NCI-H460 = system: NCI-H460
# UACC-62 = system: UACC-62
# SNB-75 = system: SNB-75
# MCF7 = system: MCF7
# IGROV-1 = system: IGROV-1
# UO-31 = system: UO-31
# K562 = system: K562
# ACHN = system: ACHN
# HL-60 = system: HL-60
SMILES,GI50 (Malme-3M),GI50 (786-0),GI50 (HOP-62),GI50 (SF-539),GI50 (HOP-92),GI50 (NCI-H522),GI50 (SR),GI50 (MOLT-4),GI50 (M14),GI50 (RXF 393),GI50 (NCI-H460),GI50 (UACC-62),GI50 (SNB-75),GI50 (MCF7),GI50 (IGROV-1),GI50 (UO-31),GI50 (K562),GI50 (ACHN),GI50 (HL-60)
OC12CC3c4ccccc4NC3C3Oc4cccc5c4C31CCN(CC1CC1)C2C5 (configuration not stated),19.7 µM (inactive),16.7 µM (inactive),18.5 µM (inactive),26.5 µM (inactive),11.4 µM (inactive),21.7 µM (inactive),17.4 µM (inactive),15.5 µM (inactive),17.7 µM (inactive),14.3 µM (inactive),17.6 µM (inactive),18.4 µM (inactive),15.3 µM (inactive),17.8 µM (inactive),15.5 µM (inactive),15.8 µM (inactive),15.5 µM (inactive),18.9 µM (inactive),
Cn1cnnc1SC(F)(F)c1nc2ccccc2o1,> 100 µM (inactive),> 100 µM (inactive),> 100 µM (inactive),> 100 µM (inactive),> 100 µM (inactive),> 100 µM (inactive),> 100 µM (inactive),> 100 µM (inactive),> 100 µM (inactive),> 100 µM (inactive),> 100 µM (inactive),> 100 µM (inactive),> 100 µM (inactive),> 100 µM (inactive),> 100 µM (inactive),> 100 µM (inactive),> 100 µM (inactive),> 100 µM (inactive),
O=C(Cc1ccccc1)NNc1nc(NNC(=O)c2ccncc2)nc(Nc2ccccc2)n1,> 10 µM (inactive),> 10 µM (inactive),> 10 µM (inactive),> 10 µM (inactive),> 10 µM (inactive),,> 10 µM (inactive),> 10 µM (inactive),> 10 µM (inactive),,> 10 µM (inactive),> 10 µM (inactive),> 10 µM (inactive),> 10 µM (inactive),> 10 µM (inactive),1.12 µM (active),> 10 µM (inactive),,> 10 µM (inactive)
COC(=O)c1c(C#N)[nH]c(-c2ccsc2)c1C(=O)OC,> 100 µM (inactive),> 100 µM (inactive),> 100 µM (inactive),,51.6 µM (inactive),> 100 µM (inactive),> 100 µM (inactive),> 100 µM (inactive),> 100 µM (inactive),> 100 µM (inactive),,76 µM (inactive),> 100 µM (inactive),> 100 µM (inactive),> 100 µM (inactive),56.4 µM (inactive),78 µM (inactive),> 100 µM (inactive),
Nc1ccc(-c2nc3ccccc3s2)cc1F,42 µM (inactive),22.6 µM (inactive),30.7 µM (inactive),,45.4 µM (inactive),20.9 µM (inactive),23.6 µM (inactive),10.8 µM (inactive),26.8 µM (inactive),27.2 µM (inactive),,20.7 µM (inactive),21.5 µM (inactive),< 0.01 µM (active),< 0.01 µM (active),14.2 µM (inactive),35.6 µM (inactive),22 µM (inactive),
CC(=O)NCC1(c2ccccc2)CCN(CC2COc3ccccc3O2)CC1 (configuration not stated) [ACOXATRINE],> 100 µM (inactive),> 100 µM (inactive),> 100 µM (inactive),> 100 µM (inactive),,> 100 µM (inactive),> 100 µM (inactive),> 100 µM (inactive),> 100 µM (inactive),> 100 µM (inactive),> 100 µM (inactive),> 100 µM (inactive),> 100 µM (inactive),> 100 µM (inactive),> 100 µM (inactive),> 100 µM (inactive),> 100 µM (inactive),> 100 µM (inactive),> 100 µM (inactive)
